Measured values reported in patent US11208396B2, “Oxime compounds as agonists of the muscarinic M1 and/or M4 receptor” (Heptares Therapeutics Limited, priority 2015, dated 2021).

Assays:
Assay type in all cases: cell-based
[1] = target: T1, human muscarinic M1 receptor (Homo sapiens, UniProt P11229); experiment: Alphascreen Surefire phospho-ERK1/2 functional assay, M1; settings: for EC50: read-out: pEC50 M1 (converted); for Emax: CHO, read-out: % Emax cf. ACh, M1, CHO cells stably expressing human M1; for Emax / % Emax cf. ACh, M1: Emax compared with ACh
T1 sequence (P11229 1-460): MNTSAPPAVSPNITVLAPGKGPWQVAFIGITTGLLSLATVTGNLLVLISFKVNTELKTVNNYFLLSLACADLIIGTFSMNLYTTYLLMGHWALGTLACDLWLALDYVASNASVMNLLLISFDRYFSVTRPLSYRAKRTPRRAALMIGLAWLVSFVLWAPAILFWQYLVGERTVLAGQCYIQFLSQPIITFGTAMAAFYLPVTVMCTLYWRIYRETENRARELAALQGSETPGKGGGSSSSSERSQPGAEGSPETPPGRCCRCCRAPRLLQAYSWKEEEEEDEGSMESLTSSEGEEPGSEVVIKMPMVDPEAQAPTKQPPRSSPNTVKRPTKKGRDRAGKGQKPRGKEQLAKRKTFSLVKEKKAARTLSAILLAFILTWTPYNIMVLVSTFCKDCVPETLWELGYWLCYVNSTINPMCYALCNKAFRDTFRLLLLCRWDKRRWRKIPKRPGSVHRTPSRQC
Method: (§1) ERK1/2 phosphorylation is a downstream consequence of both Gq/11 and Gi/o protein coupled receptor activation, making it highly suitable for the assessment of M1, M3 (Gq/11 coupled) and M2, M4 receptors (Gi/o coupled), rather than using different assay formats for different receptor subtypes. CHO cells stably expressing the human muscarinic M1, M2, M3 or M4 receptor were plated (25K/well) onto 96-well tissue culture plates in MEM-alpha+10% dialysed FBS. Once adhered, cells were serum-starved overnight. Agonist stimulation was performed by the addition of 5 μL agonist to the cells for 5 min (37° C.). Media was removed and 50 μL of lysis buffer added. After 15 min, a 4 μL sample was transferred to 384-well plate and 7 μL of detection mixture added. Plates were incubated for 2 h with gentle agitation in the dark and then read on a PHERAstar plate reader.
(§2) pEC50 and Emax figures were calculated from the resulting data for each receptor subtype.

[2] = target: T2, human muscarinic M2 receptor (Homo sapiens, UniProt P08172); experiment: Alphascreen Surefire phospho-ERK1/2 functional assay, M2; settings: for EC50: read-out: pEC50 M2 (converted)
T2 sequence (P08172 1-466): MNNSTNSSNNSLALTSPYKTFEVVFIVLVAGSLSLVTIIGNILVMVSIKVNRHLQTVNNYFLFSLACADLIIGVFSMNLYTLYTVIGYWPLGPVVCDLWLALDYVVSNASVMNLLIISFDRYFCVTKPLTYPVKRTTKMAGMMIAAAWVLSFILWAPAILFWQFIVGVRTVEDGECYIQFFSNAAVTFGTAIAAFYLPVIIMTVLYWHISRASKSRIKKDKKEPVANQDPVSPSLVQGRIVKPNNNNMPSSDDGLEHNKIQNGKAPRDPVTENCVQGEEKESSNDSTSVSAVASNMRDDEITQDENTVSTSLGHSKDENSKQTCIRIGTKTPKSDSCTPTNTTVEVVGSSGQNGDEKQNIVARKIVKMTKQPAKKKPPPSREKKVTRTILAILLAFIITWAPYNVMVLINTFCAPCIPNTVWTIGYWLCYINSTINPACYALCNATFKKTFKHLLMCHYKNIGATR
Method: as §1, §2

[3] = target: T3, human muscarinic M3 receptor (Homo sapiens, UniProt P20309); experiment: Alphascreen Surefire phospho-ERK1/2 functional assay, M3; settings: for EC50: read-out: pEC50 M3 (converted); for Emax: CHO, read-out: % Emax cf. ACh, M3, CHO cells stably expressing human M3; for Emax / % Emax cf. ACh, M3: Emax compared with ACh
T3 construct: expressed in transfected cells
T3 sequence (P20309 whole entry): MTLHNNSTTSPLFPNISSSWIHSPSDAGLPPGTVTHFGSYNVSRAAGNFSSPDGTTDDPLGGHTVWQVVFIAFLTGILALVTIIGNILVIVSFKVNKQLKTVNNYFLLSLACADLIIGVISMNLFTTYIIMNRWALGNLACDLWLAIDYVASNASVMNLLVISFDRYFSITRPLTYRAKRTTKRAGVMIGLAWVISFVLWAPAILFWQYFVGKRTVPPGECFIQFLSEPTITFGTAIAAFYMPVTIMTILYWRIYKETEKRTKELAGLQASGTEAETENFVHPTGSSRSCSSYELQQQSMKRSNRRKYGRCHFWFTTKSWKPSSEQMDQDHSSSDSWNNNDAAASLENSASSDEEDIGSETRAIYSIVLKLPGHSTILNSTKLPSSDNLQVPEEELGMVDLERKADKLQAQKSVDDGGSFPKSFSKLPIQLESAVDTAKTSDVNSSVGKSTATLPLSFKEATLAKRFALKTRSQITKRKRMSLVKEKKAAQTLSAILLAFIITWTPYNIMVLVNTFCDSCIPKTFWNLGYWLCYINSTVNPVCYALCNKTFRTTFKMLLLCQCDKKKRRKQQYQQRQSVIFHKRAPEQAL
Method: as §1, §2

[4] = target: T4, human muscarinic M4 receptor (Homo sapiens, UniProt P08173); experiment: Alphascreen Surefire phospho-ERK1/2 functional assay, M4; settings: for EC50 / % Emax cf. ACh, M4: CHO cells stably expressing human M4; for EC50: agonist 5 min, 37° C., read-out: pEC50 M4 (converted); for Emax: CHO, read-out: % Emax cf. ACh, M4, CHO cells stably expressing human M4; for Emax / % Emax cf. ACh, M4: Emax compared with ACh
T4 construct: expressed in transfected cells
T4 sequence (P08173 1-479): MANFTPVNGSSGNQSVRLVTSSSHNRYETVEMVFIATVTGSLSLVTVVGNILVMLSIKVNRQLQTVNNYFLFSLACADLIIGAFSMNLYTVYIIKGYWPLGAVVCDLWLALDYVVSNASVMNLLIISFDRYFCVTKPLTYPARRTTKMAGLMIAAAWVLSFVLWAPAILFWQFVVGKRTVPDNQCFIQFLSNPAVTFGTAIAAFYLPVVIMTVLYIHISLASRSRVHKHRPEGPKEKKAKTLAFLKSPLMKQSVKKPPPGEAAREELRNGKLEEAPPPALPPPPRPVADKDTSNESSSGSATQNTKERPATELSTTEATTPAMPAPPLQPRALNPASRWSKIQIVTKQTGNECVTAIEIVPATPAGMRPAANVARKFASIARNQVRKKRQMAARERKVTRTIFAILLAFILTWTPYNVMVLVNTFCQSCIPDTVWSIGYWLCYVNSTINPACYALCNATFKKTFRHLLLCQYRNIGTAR
Method: as §1, §2

[5] = CHO cells stably expressing human M1, agonist 5 min, 37° C.
[6] = CHO cells stably expressing human M2, Emax compared with ACh
[7] = CHO cells stably expressing human M2, agonist 5 min, 37° C.
[8] = CHO cells stably expressing human M3, agonist 5 min, 37° C.
[9] = CHO cells stably expressing human M1
[10] = CHO cells stably expressing human M3

Compound | EC50 [1, 5] | Emax [1] | EC50 [4] | Emax [4] | % Emax cf. ACh, M1 [1, 9] | % Emax cf. ACh, M4 [4] | other results
CCOC(=O)N1CCCC(N2CCC(C(=NOC)C(C)C)CC2)CC1 (single isomer, unassigned) [1-4 Isomer 1 (racemic)] | 0.398 µM | 87% | 0.0501 µM | 115% |  |  | % Emax cf. ACh, M2 [2, 6]: 24%; EC50 [2, 7]: > 20 µM; EC50 [3, 8]: > 20 µM; Emax [3]: 5%
CCCC(=NOC)C1CCN(C2CCCN(C(=O)OCC)CC2)CC1 (single isomer, unassigned) [1-3 Isomer 2 (racemic)] | 0.0631 µM |  | 0.0501 µM |  | 92% | 83% | EC50 [2, 7]: > 20 µM; Emax ([2]; CHO, read-out: % Emax cf. ACh, M2, CHO cells stably expressing human M2, Emax compared with ACh): 21%; EC50 [3, 8]: > 20 µM; Emax [3]: 17%
CCCC(=NOC)C1CCN(C2CCCN(C(=O)OCC)CC2)CC1 (single isomer, unassigned) [1-3 Isomer 1 (racemic)] | 0.316 µM | 106% | 0.0251 µM | 85% |  |  | 
CCON=C(C)C1CCN(C2CCCN(C(=O)OCC)CC2)CC1 (single isomer, unassigned) [1-7 Isomer 2 (racemic)] | 0.501 µM |  | 0.251 µM |  | 66% | 62% | 
CCCON=C(C)C1CCN(C2CCCN(C(=O)OCC)CC2)CC1 (single isomer, unassigned) [1-8 Isomer 1 (racemic)] | 0.794 µM | 65% | 0.794 µM | 46% |  |  | 
CCON=C(C)C1CCN(C2CCCN(C(=O)OCC)CC2)CC1 (single isomer, unassigned) [1-7 Isomer 1 (racemic)] | 0.631 µM | 48% | 0.631 µM | 52% |  |  | 

More lines, main results first:

EC50 [1, 5] | Emax [1] | EC50 [4] | Emax [4] | % Emax cf. ACh, M1 [1, 9] | % Emax cf. ACh, M4 [4] | Compound | other results
 |  | 0.398 µM |  | 46% | 81% | CCOC(=O)N1CCCC(N2CCC(C(C)=NOC(C)C)CC2)CC1 (single isomer, unassigned) [1-9 Isomer 2 (racemic)] | pEC50 M1 [1, 5]: 6.2
0.501 µM |  | 0.0501 µM |  | 36% | 81% | CCOC(=O)N1CCC[C@H](N2CCC(C(CC)=NOC)CC2)CC1 (single isomer, unassigned) [(S)-1-2 Isomer 2] | % Emax cf. ACh, M2 [2, 6]: 5%; pEC50 M2 [2, 7]: < 4.7; % Emax cf. ACh, M3 [3, 10]: 7%; pEC50 M3 [3, 8]: < 4.7
0.1 µM |  | 0.0631 µM |  | 98% | 80% | CCOC(=O)N1CCCC(N2CCC(C(CC)=NOC(C)C)CC2)CC1 (single isomer, unassigned) [1-12 Isomer 1 (racemic)] | % Emax cf. ACh, M2 [2, 6]: 5%; EC50 [2, 7]: > 20 µM; % Emax cf. ACh, M3 [3, 10]: 6%; EC50 [3, 8]: > 20 µM
0.251 µM | 136% | 0.398 µM | 56% |  |  | CCOC(=O)N1CCCC(N2CCC(C(=NOC)NCC(C)C)CC2)CC1 (racemic) [3-1 Mixture of isomers] | 
0.631 µM | 47% | 0.2 µM |  |  | 31% | CCOC(=O)N1CCC[C@H](N2CCC(C(C)=NOC)CC2)CC1 (single isomer, unassigned) [(S)-1-1 Isomer 1] | 
0.631 µM | 57% | > 20 µM |  |  | 0% | CCOC(=O)N1CCCC(N2CCC(C(C)=NOC(C)C)CC2)CC1 (single isomer, unassigned) [1-9 Isomer 1 (racemic)] | 
0.251 µM | 107% | 0.126 µM |  |  | 72% | CCCON=C(CC)C1CCN(C2CCCN(C(=O)OCC)CC2)CC1 (single isomer, unassigned) [1-11 Isomer 1 (racemic)] | 
0.316 µM |  | 0.316 µM |  | 85% | 50% | CCCON=C(C)C1CCN(C2CCCN(C(=O)OCC)CC2)CC1 (single isomer, unassigned) [1-8 Isomer 2 (racemic)] | 
